Test results from ChEMBL document CHEMBL1201862, “PubChem BioAssay data set” (2004).
Calls of active or inactive are those of the source.

molecular target: Cytochrome P450 2C19 (Homo sapiens, UniProt P33261); assay: Cytochrome panel assay with activity outcomes. Panel member name: p450-cyp2c19 Compounds with AC50 equal or less than 10 uM are considered active; format: functional; details: not given
Sequence (P33261 whole entry): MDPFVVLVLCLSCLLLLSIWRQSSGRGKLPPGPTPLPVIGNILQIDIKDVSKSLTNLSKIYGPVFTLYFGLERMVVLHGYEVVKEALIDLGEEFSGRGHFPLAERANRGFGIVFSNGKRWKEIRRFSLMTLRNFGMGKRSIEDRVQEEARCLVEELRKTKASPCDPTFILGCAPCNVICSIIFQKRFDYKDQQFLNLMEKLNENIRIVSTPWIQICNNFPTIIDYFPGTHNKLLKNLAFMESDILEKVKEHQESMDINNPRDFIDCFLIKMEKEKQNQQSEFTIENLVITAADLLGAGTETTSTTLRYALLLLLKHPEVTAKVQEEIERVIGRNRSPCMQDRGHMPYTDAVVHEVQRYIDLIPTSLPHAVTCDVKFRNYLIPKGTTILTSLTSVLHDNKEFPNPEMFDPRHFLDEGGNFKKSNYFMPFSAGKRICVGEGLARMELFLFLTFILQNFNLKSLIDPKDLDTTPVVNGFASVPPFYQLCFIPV

Row | Compound | AC50
1 | CC1CC(=O)c2cnc(N)nc2C1 (configuration not stated) | inconclusive
2 | COc1ccc(NC(=O)N2CCCC3(CCNCC3)C2)cc1 | inconclusive
3 | CC(C)=NO[C@@H](C)c1cn([C@@H]2COC[C@@H]2O)nn1 | inconclusive
4 | N=C(N)SCCCN | inconclusive

same assay, conditions: read-out: AC50

Row | Compound | AC50
5 | Cc1nc2ncnn2c(O)c1NC(=O)CC12CC3CC(CC(C3)C1)C2 | 44.7 µM (inconclusive)
6 | CCCC(=O)NNC(=O)Nc1ccccc1 | 28.2 µM (inconclusive)
7 | Cc1cc(C)c(C#N)c(Oc2ccc(F)cc2)n1 | 39.8 µM (inconclusive)
8 | COCCn1c(C(=O)N2CCCC2)cc2c1C[C@H]1CN(C(=O)c3ccccc3)[C@@](Cc3ccc(F)cc3)(C(=O)OC)[C@@H]21 | 25.1 µM (inconclusive)
9 | O=C(OCC1CC(c2ccccc2)=NO1)c1ccc(Cl)cc1 (configuration not stated) | 7.08 µM (inconclusive)
10 | Cc1cc[n+](CC(=O)Nc2cc(C(F)(F)F)ccc2Cl)cc1 | 3.98 µM (inconclusive)
11 | Cc1cc(C(=O)NNC(=S)NC(C)c2ccccc2)c2ccccc2n1 (configuration not stated) | 22.4 µM (inconclusive)
12 | COc1ccccc1NC(=O)CCN1C(=O)C2CC=C(Cl)CC2C1=O (configuration not stated) | 7.94 µM (inconclusive)

test system: Streptococcus; assay: Group A Streptococcus viability loss, dose response, counter-screen for streptokinase expression inhibitor project, luminescence, BacTiterGlo (AID 1915); format: functional, organism-based; details: not given;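 note: potency for reduction of bacterial viability or growth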

Row | Compound | EC50
13 | Cc1cc(C(F)(F)F)c2c(n1)sc1c(O)cc(O)nc12 | > 150 µM (not active)

molecular target: T1, Replicative DNA helicase DnaB (Mycobacterium tuberculosis, UniProt P9WMR3); assay: DnaB intein splicing inhibitors, dose response, biochemical, cell-free fluorescence (AID 449749); format: functional; details: not given
T1 sequence (P9WMR3 whole entry): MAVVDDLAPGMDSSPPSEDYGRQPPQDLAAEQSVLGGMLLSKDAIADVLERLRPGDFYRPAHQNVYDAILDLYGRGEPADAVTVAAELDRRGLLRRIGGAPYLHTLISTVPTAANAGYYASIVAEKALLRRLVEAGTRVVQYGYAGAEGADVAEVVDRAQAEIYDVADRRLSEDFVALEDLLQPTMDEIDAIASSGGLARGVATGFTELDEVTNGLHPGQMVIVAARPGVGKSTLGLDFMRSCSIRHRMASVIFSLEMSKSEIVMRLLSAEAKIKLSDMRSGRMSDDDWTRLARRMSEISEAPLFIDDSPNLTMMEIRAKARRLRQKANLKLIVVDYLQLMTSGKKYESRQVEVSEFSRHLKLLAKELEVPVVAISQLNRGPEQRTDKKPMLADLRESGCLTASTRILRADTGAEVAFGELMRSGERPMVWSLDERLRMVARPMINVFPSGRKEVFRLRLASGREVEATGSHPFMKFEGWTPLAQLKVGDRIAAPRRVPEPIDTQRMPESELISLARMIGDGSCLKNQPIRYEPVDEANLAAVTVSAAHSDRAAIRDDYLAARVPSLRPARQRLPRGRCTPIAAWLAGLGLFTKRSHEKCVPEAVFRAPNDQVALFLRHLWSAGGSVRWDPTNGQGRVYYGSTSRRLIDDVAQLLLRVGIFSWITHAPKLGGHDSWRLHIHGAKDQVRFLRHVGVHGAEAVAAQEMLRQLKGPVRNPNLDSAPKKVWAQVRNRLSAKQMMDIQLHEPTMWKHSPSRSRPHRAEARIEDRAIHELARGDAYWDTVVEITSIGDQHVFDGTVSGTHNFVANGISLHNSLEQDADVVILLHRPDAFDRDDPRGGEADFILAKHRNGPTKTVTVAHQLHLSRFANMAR

Row | Compound | AC50
14 | CC(C)(C)Nc1nc(Cl)nc(N(C#N)CN2C(=O)c3ccccc3S2(=O)=O)n1 | 15.5 µM (active)
15 | O=C(c1cccc(C(F)(F)F)c1)C1CCCN(Cc2ncc[nH]2)C1 (configuration not stated) | > 380 µM (inactive)
16 | Cc1ccc(C)c(/N=C2\C(Cl)=C(O)OC2OC(=O)c2ccco2)c1 (configuration not stated) | 20 µM (active)
17 | Cc1ccc(C(=O)n2cnc3ccccc32)cc1C | 37.7 µM (active)
18 | O=[N+]([O-])c1c(NCc2ccco2)ccc2nonc12 | 8.52 µM (active)
19 | COC(=O)[C@@]1(Cc2ccccc2)[C@@H]2C(=CC(=O)[C@H]2CC(=O)C(=O)N(C)C)CN1C(=O)c1ccccc1 | < 0.018 µM (active)
20 | O=C(c1c[nH]c(C(=O)C(Cl)(Cl)Cl)c1)c1ccc(F)cc1Cl | 13 µM (active)
21 | Cc1ccc(C2C(C#N)=C(N)Oc3n[nH]c(-c4cccs4)c32)cc1 (configuration not stated) | 4.21 µM (active)

test system: INS1; assay: beta cell apoptosis inhibitors, cytokine rescue, dose response, luminescence, retest (AID 449756); format: functional, cell-based; details: Rattus norvegicus;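 note: cell death triggered by IL-1 beta plus TNF-alpha plus IFN-gamma mixture; protective hits raise ATP signal compared with cytokine alone wells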

Row | Compound | AC50
22 | CC(C)(C)c1cnnn1-c1ccc(/C=N/Nc2ccc([N+](=O)[O-])cc2)cc1 | 4.33 µM (active)
23 | CCSC1=NCCN1C(=O)C(C)(C)Oc1ccc(Cl)cc1 | > 260 µM (inactive)

molecular target: T2, Cytochrome P450 1A2 (Homo sapiens, UniProt P05177); details: not given;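 note: PubChem cytochrome P450 panel assay, CYP1A2 panel member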
T2 sequence (P05177 whole entry): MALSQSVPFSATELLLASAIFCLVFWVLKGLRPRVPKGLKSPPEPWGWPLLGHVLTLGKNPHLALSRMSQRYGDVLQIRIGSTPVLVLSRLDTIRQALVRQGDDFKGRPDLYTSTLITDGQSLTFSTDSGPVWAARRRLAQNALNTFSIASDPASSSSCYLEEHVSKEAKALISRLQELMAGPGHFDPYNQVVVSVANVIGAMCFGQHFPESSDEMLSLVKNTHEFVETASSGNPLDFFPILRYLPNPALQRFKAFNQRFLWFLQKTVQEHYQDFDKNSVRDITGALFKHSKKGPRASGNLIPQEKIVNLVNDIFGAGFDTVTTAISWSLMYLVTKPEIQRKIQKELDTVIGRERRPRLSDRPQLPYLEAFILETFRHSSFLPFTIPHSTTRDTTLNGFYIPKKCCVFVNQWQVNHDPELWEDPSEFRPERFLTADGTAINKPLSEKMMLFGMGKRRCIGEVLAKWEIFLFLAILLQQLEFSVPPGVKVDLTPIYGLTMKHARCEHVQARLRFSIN

Row | Compound | AC50
24 | COCCn1c(C(=O)N2CCCC2)cc2c1C[C@H]1CN(C(=O)c3ccccc3)[C@@](Cc3ccc(F)cc3)(C(=O)OC)[C@@H]21 | 31.6 µM (inconclusive)
25 | O=C(OCC1CC(c2ccccc2)=NO1)c1ccc(Cl)cc1 (configuration not stated) | 2.82 µM (inconclusive)
26 | Cc1cc[n+](CC(=O)Nc2cc(C(F)(F)F)ccc2Cl)cc1 | 15.8 µM (inconclusive)
27 | Cc1cc(C(=O)NNC(=S)NC(C)c2ccccc2)c2ccccc2n1 (configuration not stated) | 31.6 µM (inconclusive)
28 | N=C(N)SCCCN | 6.31 µM (inconclusive)

test system: Streptococcus sp. 'group A'; assay: growth inhibition of control SK(-) GAS strain, dose response, counter-screen for streptokinase expression inhibitor project, luminescence, kanamycin, BacTiterGlo, confirmation (AID 1900); format: functional, organism-based; details: not given

Row | Compound | EC50
29 | Cc1cc(C(F)(F)F)c2c(n1)sc1c(O)cc(O)nc12 | 27.8 µM (active)

molecular target: T3, Protein RecA (Mycobacterium tuberculosis, UniProt P9WHJ3); assay: Fluorescence Cell-Free Homogeneous Dose Retest to Identify Inhibitors of RecA-Intein Splicing Activity. [Related pubchem assays (depositor defined):AID2097, AID2223, AID489010, AID492950]; format: functional; details: not given
T3 sequence (P9WHJ3 whole entry): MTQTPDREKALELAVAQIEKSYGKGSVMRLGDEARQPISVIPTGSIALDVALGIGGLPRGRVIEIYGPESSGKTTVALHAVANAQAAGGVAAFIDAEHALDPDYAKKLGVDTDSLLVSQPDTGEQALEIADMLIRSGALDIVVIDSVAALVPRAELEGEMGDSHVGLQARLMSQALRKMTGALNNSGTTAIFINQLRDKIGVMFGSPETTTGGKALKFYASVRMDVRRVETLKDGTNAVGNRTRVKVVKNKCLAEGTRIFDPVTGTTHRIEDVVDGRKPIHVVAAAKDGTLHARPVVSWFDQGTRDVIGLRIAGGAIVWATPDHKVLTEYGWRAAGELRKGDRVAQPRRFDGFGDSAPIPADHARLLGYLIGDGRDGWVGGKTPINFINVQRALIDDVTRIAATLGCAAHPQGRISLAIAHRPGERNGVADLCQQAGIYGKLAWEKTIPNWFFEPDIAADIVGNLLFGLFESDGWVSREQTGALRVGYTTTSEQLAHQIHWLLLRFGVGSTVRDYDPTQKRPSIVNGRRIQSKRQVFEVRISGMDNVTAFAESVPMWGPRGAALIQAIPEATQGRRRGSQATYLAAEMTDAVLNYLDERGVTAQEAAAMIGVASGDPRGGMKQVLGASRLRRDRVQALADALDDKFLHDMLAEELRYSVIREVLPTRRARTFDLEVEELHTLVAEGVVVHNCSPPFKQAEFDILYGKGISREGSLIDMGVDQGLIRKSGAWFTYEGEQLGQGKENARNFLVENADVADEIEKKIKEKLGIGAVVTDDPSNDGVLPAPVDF

Row | Compound | EC50
30 | CC(C)(C)Nc1nc(Cl)nc(N(C#N)CN2C(=O)c3ccccc3S2(=O)=O)n1 | 18.4 µM (active)
31 | O=C(c1cccc(C(F)(F)F)c1)C1CCCN(Cc2ncc[nH]2)C1 (configuration not stated) | > 380 µM (inactive)
32 | Cc1ccc(C)c(/N=C2\C(Cl)=C(O)OC2OC(=O)c2ccco2)c1 (configuration not stated) | 9.37 µM (active)
33 | Cc1ccc(C(=O)n2cnc3ccccc32)cc1C | 124 µM (active)
34 | O=[N+]([O-])c1c(NCc2ccco2)ccc2nonc12 | 10.1 µM (active)
35 | COC(=O)[C@@]1(Cc2ccccc2)[C@@H]2C(=CC(=O)[C@H]2CC(=O)C(=O)N(C)C)CN1C(=O)c1ccccc1 | 5.12 µM (active)
36 | O=C(c1c[nH]c(C(=O)C(Cl)(Cl)Cl)c1)c1ccc(F)cc1Cl | 4.49 µM (active)
37 | Cc1ccc(C2C(C#N)=C(N)Oc3n[nH]c(-c4cccs4)c32)cc1 (configuration not stated) | 1.12 µM (active)
